In patent US11977071B2, “Method for screening for platelet production promoters” (Kyoto University, priority 2016, dated 2024):

How the values were obtained:
[1] = test system: TUBB1 expression (VENUS reporter) in immortalized megakaryocyte cell line MKCL #12-23 cre2; test: Secondary screening: VENUS fluorescence intensity in reporter immortalized megakaryocyte cell line at four concentrations; type: cell-based, human; details: 10 μM, 3.3 μM, 1.1 μM and 0.4 μM compound, day 7
Procedure: Secondary screening consisted of seeding the immortalized megakaryocyte cell line obtained according to the method described above into a 96-well dish and culturing after adding 10 μM Y-27632, 50 ng/ml of TPO, 50 ng/ml of SCF and the primary candidate compounds at concentrations of 10 μM, 3.3 μM, 1.1 μM and 0.4 μM each. The cells were also cultured in differentiation medium containing 0.75 μM SR1, 10 μM Y-27632, 50 ng/ml of TPO and 50 ng/ml of SCF (positive control) or differentiation medium containing 0.1% DMSO, 10 μM Y-27632, 50 ng/ml of TPO and 50 ng/ml of SCF (negative control). On day 7 of culturing, the fluorescence intensity of VENUS in each compound group was measured with Array Scan VTI (Thermo Scientific), and the value of fluorescence intensity of each compound was corrected according to the fluorescence intensity of the positive control (assigned a value of 100%) and the fluorescence intensity of the negative control (assigned a value of 0%). […] The secondary candidate compounds consisted of 35 types of compounds, and included, for example, TCS-359 (CAS NO. 301305-73-7, Santa Cruz Biotechnology, Inc.) and C59 (CAS NO. 1243243-89-1).

[2] = test system: immortalized megakaryocyte cell line MKCL #12-23 cre2; test: Platelet production by immortalized megakaryocyte cell line, FACS of supernatant (anti-CD41a, anti-CD42b); type: cell-based, human; details: 10 μM, 3.3 μM, 1.1 μM and 0.4 μM compound, day 7, 6-well dish
Procedure: Continuing, the effect of promoting platelet production was confirmed for 28 compounds from among the secondary candidate compounds excluding duplicate compounds and compounds that were unable to be used commercially. The above-mentioned immortalized megakaryocyte cell line was cultured in a 6-well dish in differentiation medium containing each of the compounds at concentrations of 10 μM, 3.3 μM, 1.1 μM and 0.4 μM, 10 μM Y-27632, 50 ng/ml of TPO and 50 ng/ml of SCF, differentiation medium containing 0.75 μM SR1, 10 μM Y-27632, 50 ng/ml of TPO and 50 ng/ml of SCF (positive control), or differentiation medium containing 0.1% DMSO, 10 μM Y-27632, 50 ng/ml of TPO and 50 ng/ml of SCF (negative control), followed by suspending the cells and harvesting the supernatant on day 7 of culturing and analyzing by FACS after staining with anti-CD41a antibody and anti-CD42b antibody. The relative number of platelets was calculated by correcting the number of platelets in the case of using each candidate compound with the number of platelets of the positive control (assigned a value of 100%) and the number of platelets of the negative control (assigned a value of 0%) (FIG. 9).

[3] = test system: megakaryocyte cells (non-immortalized) derived from iPS cells (TkDA3-4); test: Platelet production of iPS cell (TkDA3-4)-derived megakaryocyte cells in absence of feeder cells, FACS; type: cell-based; details: 10 days, 1 μM C59, 3.3 μM TCS-359, 0.75 μM SR1
Procedure: After culturing iPS cells (TkDA3-4), the colonies were detached with a cell scraper and cultured in differentiation medium on 10T1/2 feeder cells following the addition of […] of VEGF in accordance with Takayama, N., et al., Blood, 111, pp. 5298-5306, 2008. Fourteen days later, the cells were recovered using a cell scraper and cultured for 10 days in the absence of feeder cells following the addition of 25 U/mL of heparin, 10 μM Y-27632, 100 ng/ml of TPO and 50 ng/ml of SCF, and further adding 0.1% DMSO, 0.75 μM SR1, 1 μM C59 (Albiochem) or 3.3 μM TCS-359 (Santa Cruz Biotechnology, Inc.). Culturing was also carried out in the same manner using feeder cells. The resulting cells were suspended and the supernatant was harvested followed by analyzing by FACS after staining with anti-CD41a antibody and anti-CD42b antibody (FIG. 10).

[4] = test system: immortalized megakaryocyte cell line MKCL #12-23 cre2; test: Time course of VENUS expression and platelet number with or without SR1 on 10T1/2R feeder cells, FACS; type: cell-based, human; details: 0.75 μM SR1 with 10 μM Y-27632, TPO, SCF; day 0 to day 7
Procedure: Continuing, the immortalized megakaryocyte cell line was cultured on 10T1/2R feeder cells in differentiation medium containing 50 ng/ml of TPO and 50 ng/ml of SCF or differentiation medium containing 0.75 μM SR1, 10 μM Y-27632, 50 ng/ml of TPO and 50 ng/ml of SCF, followed by suspending the cells and harvesting the supernatant on day 0, day 1, day 3, day 4, day 6 and day 7 of culturing and analyzing the cells by FACS after staining with anti-CD41a antibody and anti-CD42b antibody.

SMILES | concentration dependency of VENUS fluorescence intensity [1] | relative number of platelets (positive control 0.75 μM SR1 = 100%, negative control 0.1% DMSO = 0%) [2] | ability to produce platelets compared with SR1 [3] | expression level of VENUS [4] | number of platelets produced [4]
Cc1cc(-c2ccc(CC(=O)Nc3ccc(-c4cccnc4)cc3)cc2)ccn1 [C59] | concentration dependency was observed | potent platelet inducer | equal to or greater than that of SR1 | – | –
CC(C)n1cnc2c(NCCc3ccc(O)cc3)nc(-c3csc4ccccc34)nc21 [SR1, StemRegenin 1] | – | – | – | confirmed to rise | confirmed to increase
COc1ccc(C(=O)Nc2sc3c(c2C(N)=O)CCCC3)cc1OC [TCS-359] | concentration dependency was observed | – | equal to or greater than that of SR1 | – | –
